Results on 5 compounds are retold here after ChEMBL document CHEMBL1201862, “PubChem BioAssay data set” (2004).

Test systems include SF-268; HL-60; HCT-15; UACC-62; HOP-62; KM12; SK-MEL-5; A549; OVCAR-5; SW-620; HCT-116; HT-29; IGROV-1; HOP-92; SK-MEL-28; SK-MEL-2; K562; NCI-H522; RPMI-8226; CAKI-1.
Test in all cases: NCI anticancer screen, dose series, 48 h

Each structure is given as a SMILES string.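 The compound was tested at five concentrations on cells cultured in 96-well plates, with a 48-hour exposure period. GI50 = concentration required for 50% inhibition of growth.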 Active and inactive are the calls of the source. Rule as the data show it: active = GI50 up to about 1.1 µM and inactive = higher. Where only a bound is given, the exact number is not on record here.

As to `CC1=NN(C(=O)c2ccc(C)cc2)C(=O)C1/N=N/c1ccccc1C(=O)O` (stereo not given), the GI50 in the test on SF-268 is > 100 µM (inactive); with HL-60 it was > 62.7 µM (inactive); with HCT-15, 52.6 µM; with UACC-62 it was > 100 µM (inactive); in the test on HOP-62, > 100 µM (inactive); in the test on KM12, > 100 µM (inactive). The GI50 with SK-MEL-5 was > 100 µM (inactive); with A549 it was > 100 µM (inactive); in the test on OVCAR-5 it was > 100 µM (inactive); in the test with SW-620, > 100 µM (inactive); in the test on HCT-116 it was > 100 µM (inactive); with HT-29, > 32.1 µM (inactive). The GI50 with IGROV-1 is > 100 µM (inactive); in the test with HOP-92, > 79.8 µM (inactive); in the test with SK-MEL-28, > 100 µM (inactive); with SK-MEL-2 it was > 100 µM (inactive); in the test on K562, 66.4 µM (inactive); in the test with NCI-H522, 29.6 µM (inactive). The GI50 in the test with RPMI-8226 is 95.7 µM (inactive); in the test on CAKI-1, > 100 µM (inactive).
For the compound `COc1cc2cc[n+]3c(C)c4cc(OC)c(OC)cc4c([O-])c3c2cc1OC`, the GI50 is 36.3 µM (inactive) in the test with SF-268; 16.9 µM (inactive) in the test on HL-60; greater than 100 µM in the test with HCT-15; > 100 µM (inactive) with UACC-62; > 100 µM (inactive) in the test on HOP-62; 70.1 µM (inactive) in the test with KM12. The GI50 with SK-MEL-5 is 36.8 µM (inactive); in the test with A549, > 100 µM (inactive); with OVCAR-5, > 100 µM (inactive); in the test on SW-620 it was 41.9 µM (inactive); with HCT-116, 89.7 µM (inactive); in the test on HT-29 it was 41.2 µM (inactive). Further, the GI50 with IGROV-1 is 25.7 µM (inactive); in the test on HOP-92 it was > 100 µM (inactive); with SK-MEL-28 it was 64.3 µM (inactive); with SK-MEL-2, 56.9 µM (inactive); with K562, 64.3 µM (inactive); in the test with NCI-H522 it was 18.2 µM (inactive). In addition, the GI50 in the test with RPMI-8226 and in the test with CAKI-1 was > 100 µM (inactive) each time.
For `CC(C(=O)O)c1cnn(-c2ccccc2)c1-n1cccc1` (stereo not given), the GI50 in the test on SF-268 was > 100 µM (inactive); with HL-60 it was > 100 µM (inactive); in the test on HCT-15 it was greater than 100 µM; in the test with UACC-62 it was > 100 µM (inactive); in the test on HOP-62 it was > 100 µM (inactive); with KM12 it was > 100 µM (inactive). In addition, the GI50 is > 100 µM (inactive) with SK-MEL-5; > 100 µM (inactive) with A549; > 100 µM (inactive) in the test on OVCAR-5; > 63 µM (inactive) in the test with SW-620; > 100 µM (inactive) in the test on HCT-116; > 100 µM (inactive) with HT-29. Besides, the GI50 in the test on IGROV-1, with HOP-92, with SK-MEL-28, in the test with SK-MEL-2, in the test on K562 and with NCI-H522 was > 100 µM (inactive) in each case. The GI50 in the test with RPMI-8226 and with CAKI-1 was > 100 µM (inactive) throughout.
For `OCC(O)COc1ccc(Br)cc1` (stereo not given), the GI50 in the test with SF-268 is > 100 µM (inactive); in the test on HL-60, > 100 µM (inactive); in the test with HCT-15 it was greater than 100 µM; in the test with UACC-62 it was > 100 µM (inactive); in the test on HOP-62, > 100 µM (inactive); in the test on KM12, > 100 µM (inactive). Also, the GI50 in the test on SK-MEL-5 is > 100 µM (inactive); in the test with A549, 50.7 µM (inactive); in the test with OVCAR-5, > 100 µM (inactive); in the test with SW-620, > 100 µM (inactive); in the test with HCT-116, > 100 µM (inactive); in the test on HT-29 it was > 100 µM (inactive). Moreover, the GI50 in the test on IGROV-1, in the test with HOP-92, with SK-MEL-28, in the test with SK-MEL-2, in the test on K562 and with NCI-H522 was > 100 µM (inactive) in each case. Further, the GI50 in the test on RPMI-8226 and in the test on CAKI-1 was > 100 µM (inactive) each time.
With `O=C1C(CO)=C[C@H](O)[C@H]2O[C@@H]12`, the GI50 in the test on SF-268 is 125 µM (inactive); in the test on HL-60 it was 78.3 µM (inactive); with HCT-15 it was 124 µM; with UACC-62, 113 µM (inactive); with HOP-62, 497 µM (inactive); with KM12 it was 83.9 µM (inactive). The GI50 is 202 µM (inactive) in the test on SK-MEL-5; 318 µM (inactive) with A549; 264 µM (inactive) in the test with OVCAR-5; 126 µM (inactive) in the test with SW-620; 104 µM (inactive) with HCT-116; 260 µM (inactive) with HT-29. The GI50 in the test with IGROV-1 was 182 µM (inactive); with HOP-92, 283 µM (inactive); in the test with SK-MEL-28 it was 136 µM (inactive); in the test on SK-MEL-2, 130 µM (inactive); in the test on K562, 163 µM (inactive); in the test with NCI-H522, 88.7 µM (inactive). Besides, the figures for the GI50 in the test with RPMI-8226 and in the test with CAKI-1 were > 96.8 µM (inactive) and 253 µM (inactive), respectively.
